Data set [1] has as its system abstinence-like signs induced by neuropeptide FF (1). As to conditions: cited from earlier work.
The nature of data set [2]: Immobilized artificial membrane (IAM) chromatography. In kind it is physicochemical. An excerpt: The purity of this new neuropeptide FF antagonist was confirmed by combustion analysis [Table 1] (data were within ±0.4% of calculated values) and ESI mass spectrometry (no impurities exceeding 1% based on relative ion abundance). […] The compounds were also characterized by immobilized artificial membrane (IAM) chromatography, a method that furnishes capacity factors whose logarithm generally correlates with in vivo absorption [Pidgeon, et al., J. Med. Chem. 1995, 38, 590-594] including penetration across the BBB [Reichel, et al., Pharm. Res. 1998, 15, 1270-1274].
The combinatorial libraries herein were prepared on a SynPep (Dublin, Calif.) multiple peptide synthesizer. A Synthor 2000, Peptide International (Louisville, Ky.) instrument was used for the preparation of the individual compounds by Fmoc chemistry. Immobilized artificial membrane (IAM) chromatography was performed on a system that included a model SP 8810 precision isocratic pump, an SP 8880 autosampler with a 20-μL injection loop, an SP 8450 variable wavelength UV/VIS detector operated at 254 nm, and SP 4290 computing integrator (all from ThermoSeparation|SpectraPhysics, Fremont, Calif.). RP-HPLC purification was done on a system composed of an SP 200 binary gradient pump (ThermoSeparation), a Rheodyne (Cotati, Calif.) model 7125 injector valve equipped with a 5-mL sample loop, and an SP 100 UV/VIS detector (ThermoSeparation) operated at 210 nm. Electrospray ionization (ESI) and tandem mass spectra were obtained on a quadrupole ion trap instrument (LCQ, Finnigan MAT, San Jose, Calif.). NMR spectra were recorded on Bruker AVANCE instruments (Bremen, Germany). Resonance frequencies were 500 and 600 MHz for ^1H and 127 MHz for ^13C. The samples were dissolved in H2O/D2O (8/2, v/v).

Data set [3] deals with receptor labeled by the radioiodinated analogue of 1 (4, [125I]-YLFQPQRF-NH2); neuropeptide FF receptor. Kind of data set: Competitive radioligand binding against 4 ([125I]Y8F-amide). As to conditions: for Ki: competition against 4; for Relative Binding Index (RBI): mixture-based positional scanning, difference from averaged radioligand displacement of whole library (0), about 80 a.u. = 10-fold change in Ki.

For data set [4], the system named is naloxone-precipitated withdrawal symptoms. The following applies: cited from earlier work.
The target of data set [5] is receptor labeled by the radioiodinated analogue of 1 (4, [125I]-YLFQPQRF-NH2); neuropeptide FF receptor. As to conditions: CNS membrane preparation, literature value; cited from earlier work.
For data set [6] the following is noted: after systemic administration; cited from earlier work.
Data set [7] deals with opiate abstinence syndrome. As to conditions: 2 μg i.c.v.; cited from earlier work.

Read-outs that look alike come from different tables or passages of the source. Ends that are not written are not given here. Peptide text beside a SMILES is read from it. * marks the point of attachment. Dansyl = CN(C)c1cccc2c(S(=O)(=O)*)cccc12; Desaminotyrosyl = O=C(CCc1ccc(O)cc1)*

Usually Ki stands for a measure of affinity in units of concentration, obtained from inhibition or displacement. A high value points to a looser hold on the target. As to `CN(C)c1cccc2c(S(=O)(=O)N3CCCC3C(=O)NC(CCC(N)=O)C(=O)NC(CCCNC(=N)N)C(N)=O)cccc12` (stereo not drawn) [Compound 3, Dansyl-Pro-Gln-Arg-NH2, reference compound] (Dansyl-Pro-Gln-Arg-NH2; configuration not given here), in data set [1] (rat, in vivo), the “QMAS induced by 1” value is “dose-dependently antagonized”. In data set [2], the “kIAM′ (IAM capacity factor)” value is reported as 5.9 and the “log kIAM′” value is reported as 0.77. Also, in data set [3], the Ki was determined as 13600 nM and the “Relative Binding Index (RBI)” value was −34 a.u. In addition, the “naloxone-precipitated withdrawal symptoms in morphine-dependent rats” value in data set [4] (administered subcutaneously) is “blunted”. Further, the “inhibition constant (Ki)” value in data set [5] is “micromolar range”.
As to `CN(C)c1cccc2c(S(=O)(=O)NCC(=O)NC(CO)C(=O)NC(CCCNC(=N)N)C(N)=O)cccc12` (stereo not drawn) [Compound 5, dansyl-Gly-Ser-Arg-NH2] (Dansyl-Gly-Ser-Arg-NH2; configuration not given here), in data set [2], the “kIAM′ (IAM capacity factor)” value was found to be 8.0 and the “log kIAM′” value is recorded as 0.90. Besides, in data set [3], the Ki turned out to be 1400 ± 500 nM and the “Relative Binding Index (RBI)” value was found to be 46 a.u. The “increase in binding affinity compared to 3” value in data set [3] (ratio of Ki values) is “approximately 10 fold”.
For the compound `CN(C)c1cccc2c(S(=O)(=O)N[C@@H](Cc3ccc(O)cc3)C(=O)N[C@@H](CCCNC(=N)N)C(=O)N[C@@H](CCCNC(=N)N)C(N)=O)cccc12` [Dansyl-YRR-amide] (Dansyl-Tyr-Arg-Arg-NH2), in data set [3], the “Relative Binding Index (RBI)” value was 6 a.u.
Consider `CN(C)c1cccc2c(S(=O)(=O)N[C@@H](Cc3ccc(O)cc3)C(=O)N[C@@H](CO)C(=O)N[C@@H](CCCNC(=N)N)C(N)=O)cccc12` [Dansyl-YSR-amide] (Dansyl-Tyr-Ser-Arg-NH2), for which, in data set [3], the “Relative Binding Index (RBI)” value stood at 28 a.u.
Consider `C[C@@H](O)[C@H](NC(=O)[C@H](Cc1ccc(O)cc1)NS(=O)(=O)c1cccc2c(N(C)C)cccc12)C(=O)N[C@@H](CCCNC(=N)N)C(N)=O` [Dansyl-YTR-amide] (Dansyl-Tyr-Thr-Arg-NH2), for which, in data set [3], the “Relative Binding Index (RBI)” value is 13 a.u.
On the same count and under the same terms, as for `CC(C)[C@H](NC(=O)[C@H](Cc1ccc(O)cc1)NS(=O)(=O)c1cccc2c(N(C)C)cccc12)C(=O)N[C@@H](CCCNC(=N)N)C(N)=O` [Dansyl-YVR-amide] (Dansyl-Tyr-Val-Arg-NH2), the figure is 2 a.u; as for `CN(C)c1cccc2c(S(=O)(=O)N[C@@H](Cc3ccc(O)cc3)C(=O)N[C@@H](Cc3c[nH]c4ccccc34)C(=O)N[C@@H](CCCNC(=N)N)C(N)=O)cccc12` [Dansyl-YWR-amide] (Dansyl-Tyr-Trp-Arg-NH2), 16 a.u; as for `CN(C)c1cccc2c(S(=O)(=O)N[C@@H](Cc3ccc(O)cc3)C(=O)N[C@@H](Cc3ccc(O)cc3)C(=O)N[C@@H](CCCNC(=N)N)C(N)=O)cccc12` [Dansyl-YYR-amide] (Dansyl-Tyr-Tyr-Arg-NH2), 6 a.u.
For “Desaminotyrosyl-Phe-Leu-Phe-Gln-Pro-Gln-Arg-NH2 (Desaminotyrosyl-FLFQPQR-NH2; SMILES CC(C)C[C@H](NC(=O)[C@H](Cc1ccccc1)NC(=O)CCc1ccc(O)cc1)C(=O)N[C@@H](Cc1ccccc1)C(=O)N[C@@H](CCC(N)=O)C(=O)N1CCC[C@H]1C(=O)N[C@@H](CCC(N)=O)C(=O)N[C@@H](CCCNC(=N)N)C(N)=O) [Compound 2]”, the “abstinence-like signs induced by 1 in opiate-naive rats” value in data set [1] (icv administration) is recorded as “attenuated”. Also, in data set [6], the CNS bioavailability result is given as “did not show any CNS bioavailability”. Affinity in data set [3] was put at a Ki of 840 ± 180 nM. In data set [4] (icv administration), the “abstinence signs upon naloxone challenge in morphine-dependent animals” value was “attenuated”.
For “Phe-Leu-Phe-Gln-Pro-Gln-Arg-Phe-NH2 (FLFQPQRF-NH2) [Compound 1, endogenous neuropeptide FF]”, the “quasi-morphine-abstinence syndrome (QMAS) in opiate-naive rats” value in data set [1] (15 μg i.c.v.) is given as “induces”. For the same compound, the “opiate abstinence syndrome in morphine-dependent rats” value in data set [7] was “precipitates”.
With Pro-Phe-Arg(Tic)-NH2 [Compound 3a], in data set [4] (compared with 3), the “potency (or efficacy) in the pharmacological tests employed” value is “less than that of 3”. In addition, the “naloxone-precipitated withdrawal symptoms in morphine-dependent rats” value in data set [4] (systemic administration) was “attenuated”.

Source of the values: US6960574B2, “Antagonists of RF-amide neuropeptides” (University of Florida, priority 2002, dated 2005).
